Measured values: patent publication US5719130A, “Anthracycline derivative having a trifluoromethylated sugar” (Zaidan Hojin Biseibutsu Kagaku Kenkyu Kai, priority 1994, dated 1998)
Converted amounts (≈) assume the structure as drawn. “Also recorded” adds a separate entry of the source. Like-named read-outs stand apart in the source and are kept apart here.

Key:
[1] = test system: P388 cells; experiment: In vitro inhibition of growth of P388 cells, 72 hours (Test Example 3); format: cell-based, mouse; details: for IC50: Mus musculus; for antitumor activity against P388 cell (in words): compared with other compounds
Procedure: (§1) Furthermore, in order to estimate the antitumor activities of Compound (a) and Compound (b) of this invention represented by the general formula (I), as well as the adriamycinone derivative represented by the formula (II) (namely, Compound (c) of this invention), some "in vitro" tests for inhibiting proliferation of cancer cells were conducted as shown below.
(§2) The above-mentioned Compound (a), Compound (b) or Compound (c) according to this invention were added at varying concentrations to mouse leukemia, P388 cells or adriamycin-resistant P388 cells (P388/ADR) which had been incubated in test tubes containing an appropriate culture medium. The incubation of the tumor cells were then continued for 72 hours from the addition of the test compound, and determination was made to evaluate such concentrations of the test compound which could inhibit the growth of the leukemia cells by 50% (namely, IC50' ng/ml). FT-DM, FT-ADM and adriamycin (as the hydrochloride) were used as comparative compounds and were tested in the same manner as above.

[2] = test system: Leukemia L-1210 cells; experiment: Antitumor activity against leukemia L-1210 in CDF1 mice, 60-day observation (Test Example 1); format: in vivo, mouse; details: for % Increase in life-span (T/C, %): 9 days, 60 d observation, '>' = at least one of four mice survived 60 days; for development of toxicity (in words): 2.5 to 5 mg/kg/day for daunomycin, adriamycin, 0.3 to 1.25 mg/kg/day for Compound (b), low dosages for formula (I)
Procedure: Thus, to evaluate the antitumor effects of the new compounds of this invention against experimental tumors in animals, CDF1 mice (four mice per group) were intraperitoneally transplanted with cells of Leukemia L-1210 at an amount of 1×10^5 cells/mouse. Since an elapsed time of 24 hours from the transplantation of the leukemia cells, a test compound according to this invention was administered intraperitoneally to the mice under test for 9 consecutive days once per day. […] While, mice of the control group (the untreated group) were administered with only physiological saline after the transplantation of the L-1210 cells. During the observation period, the numbers of the surviving mice in the treated group and in the control group were counted, and the mean survival days of mice in the treated group and in the control group were then calculated. From the mean survival day (C) of the untreated mice of the control group and the mean survival day (T) of the treated mice of the treated group, there were evaluated percentages (%) of the increase in the life-span of the treated mice, as T/C %. For a comparison purpose, 7-O-(2,6-dideoxy-2-fluoro-α-L-talopyranosyl)daunomycinone (abbreviation: FT-DM); 7-O-(2,6-dideoxy-2-fluoro-α-L-talopyranosyl)adriamycinone (abbreviation: FT-ADM); daunomycin and adriamycin were also tested in the same manner as above. Incidentally, the mean survival day of mice of the control group (the untreated group) was amounting to 8 to 9 days, and the mean survival day of mice of the comparative groups having received the administration of adriamycin was varying dependently on the dosage of adriamycin.

[3] = test system: adriamycin-resistant P388 cells (P388/ADR); experiment: In vitro inhibition of growth of adriamycin-resistant P388 cells, 72 hours (Test Example 3); format: cell-based, mouse; details: for IC50: Mus musculus, P388/ADR, 72 hours; for growth inhibition of P388/ADR cell (in words): compared with adriamycin, FT-DM, FT-ADM
Procedure: as §1, §2

[4] = test system: Leukemia L-1210 cells; experiment: Antitumor activity against leukemia L-1210 in CDF1 mice, 30-day observation (Test Example 2); format: in vivo, mouse; details: for mice surviving 30 days / mice tested / % Increase in life-span (T/C, %): 9 days; for % Increase in life-span (T/C, %): 30 d observation, '>' = at least one of four mice survived 30 days
Procedure: Since an elapsed time of 24 hours from the transplantation of the leukemia cells, Compound (c) of this invention was administered intraperitoneally to the mice under test for 9 consecutive days once per day. […] While, mice of the control group (the untreated group) were administered with only physiological saline after the transplantation of the L-1210 cells. During the observation period, the numbers of the surviving mice in the treated group and the control group were counted, and the mean survival days of mice in the treated group and in the control group were then calculated. From the mean survival day (C) of the untreated mice of the control group and the mean survival day (T) of the treated mice of the treated group, there were evaluated percentages (%) of the increase in the life-span of the treated mice as T/C %. For a comparison purpose, adriamycin was also tested in the same manner as above.

[5] = human, in vivo; cited from earlier work
[6] = 0.3 mg/kg/day to 1.25 mg/kg/day, about 300% or more

Structure (SMILES)	antitumor activity in vivo (in words) [2]	% Increase in life-span (T/C, %) ([2]; 0.15 mg/kg/day i.p.) [%]	% Increase in life-span (T/C, %) ([2]; 0.3 mg/kg/day i.p.) [%]	% Increase in life-span (T/C, %) ([2]; 0.6 mg/kg/day i.p.) [%]	% Increase in life-span (T/C, %) ([2]; 1.25 mg/kg/day i.p.) [%]	% Increase in life-span (T/C, %) ([2]; 2.5 mg/kg/day i.p.) [%]	% Increase in life-span (T/C, %) ([2]; 5 mg/kg/day i.p.) [%]	IC50 [3] [µg/mL]	growth inhibition of P388/ADR cell (in words) [3]	IC50 ([1]; P388, 72 hours, read-out: IC50) [µg/mL]	antitumor activity against P388 cell (in words) [1]	development of toxicity (in words) [2]	further results
COc1cccc2c1C(=O)c1c(O)c3c(c(O)c1C2=O)C[C@@](O)(C(C)=O)C[C@@H]3O[C@@H]1O[C@@H](C(F)(F)F)[C@@H](O)[C@@H](O)[C@H]1F [Compound (a), 7-O-(2,6-dideoxy-2,6,6,6-tetrafluoro-α-L-talopyranosyl)daunomycinone]	much higher therapeutic effects against the L-1210 leukemia than daunomycin; also recorded: at low dosages of 0.6 to 1.25 mg/kg exhibited much higher therapeutic effects than FT-DM	106	119	132	294	210	158	0.028 (≈ 0.0466 µM)	can inhibit the growth of P388/ADR cell at the remarkedly lower concentrations than adriamycin; also recorded: at the substantially same concentrations as or at the lower concentrations than FT-DM and FT-ADM				IC50 ([1]; P388, 72 h): < 0.0098 µg/mL
COc1cccc2c1C(=O)c1c(O)c3c(c(O)c1C2=O)C[C@@](O)(C(=O)CO)C[C@@H]3O[C@@H]1O[C@@H](C(F)(F)F)[C@@H](O)[C@@H](O)[C@H]1F [Compound (b), 7-O-(2,6-dideoxy-2,6,6,6-tetrafluoro-α-L-talopyranosyl)adriamycinone]	remarkedly higher antitumor effects in mice than FT-ADM; also recorded: extraordinarily higher anticancer or antitumor activities than those of adriamycin; also recorded: enhanced anticancer or antitumor activities over the whole range of low dosages of from 0.15 to 1.25 mg/kg of Compound (b), as compared with the comparative drug, FT-ADM	144	> 407	> 459	> 348	233	128	0.043 (≈ 0.0698 µM)	can inhibit the growth of P388/ADR cell at the remarkedly lower concentrations than adriamycin; also recorded: at the substantially same concentrations as or at the lower concentrations than FT-DM and FT-ADM	< 0.0098	to a substantially same degree as that of FT-ADM	not accompanied by development of toxicity	percentages of increase in the life-span [2, 6]: ≥ 300%; survival for 60 days / cure (in words) ([2]; 0.3 to 1.25 mg/kg): some cases of the complete curing of the L-1210 cell-inoculated mice; also recorded: the mouse which could survive for 60 days (namely, the mouse as fully cured from the leukemia) can be observed
COc1cccc2c1C(=O)c1c(O)c3c(c(O)c1C2=O)C[C@@](O)(C(=O)CO)C[C@@H]3O[C@H]1C[C@H](O)[C@H](O)[C@H](C(F)(F)F)O1 [Compound (c), 7-O-(2,6-dideoxy-6,6,6-trifluoro-α-L-lyxo-hexopyranosyl)adriamycinone]								0.17 (≈ 0.284 µM)	higher antitumor activities than adriamycin	< 0.0098	to a substantially same degree as that of Compound (b)		mice surviving 30 days / mice tested ([4]; 0.15 mg/kg/day i.p.): 3/4; % Increase in life-span (T/C, %) ([4]; 0.15 mg/kg/day i.p.): > 335%; mice surviving 30 days / mice tested ([4]; 0.3 mg/kg/day i.p.): 3/4; % Increase in life-span (T/C, %) ([4]; 0.3 mg/kg/day i.p.): > 329%; percentages of increase in the life-span [4, 6]: ≥ 300%; mice surviving 30 days / mice tested ([4]; 0.6 mg/kg/day i.p.): 2/4; % Increase in life-span (T/C, %) ([4]; 0.6 mg/kg/day i.p.): > 283%; % Increase in life-span (T/C, %) ([4]; 1.25 mg/kg/day i.p.): 203%; % Increase in life-span (T/C, %) ([4]; 2.5 mg/kg/day i.p.): 194%; % Increase in life-span (T/C, %) ([4]; 5 mg/kg/day i.p.): 135%; complete curing (in words) ([4]; 0.3 to 1.25 mg/kg/day): some cases of the complete curing of the L-1210 cell-inoculated mice; development of toxicity (in words) ([4]; 0.3 to 1.25 mg/kg/day, low dosages): not accompanied by development of toxicity; antitumor activity in vivo (in words) ([4]; 0.6 to 0.15 mg/kg): very much higher anticancer or antitumor activities than those of adriamycin; mice which could survive for 30 days ([4]; amongst totally 12 test mice, 0.6 to 0.15 mg/kg): 8 mice; concentration inhibiting growth of P388/ADR (IC50) relative to that of adriamycin ([3]; 1/3-folds lower than that of adriamycin): 1/3
COc1cccc2c1C(=O)c1c(O)c3c(c(O)c1C2=O)C[C@@](O)(C(C)=O)C[C@@H]3O[C@H]1C[C@H](N)[C@H](O)[C@H](C)O1 [Daunomycin, daunomycin]		132	112	145	158	171	138					accompanied by development of toxicity	serious side-effects (in words) [5]: serious side-effects such as leukocytopenia, alopecia, myocardiopathy and others
COc1cccc2c1C(=O)c1c(O)c3c(c(O)c1C2=O)C[C@@](O)(C(=O)CO)C[C@@H]3O[C@@H]1O[C@@H](C)[C@@H](O)[C@@H](O)[C@H]1F [FT-ADM, 7-O-(2,6-dideoxy-2-fluoro-α-L-talopyranosyl)adriamycinone]		127	182	185	275	> 352	> 740	0.0928 (≈ 0.165 µM)		0.0034 (≈ 0.00604 µM)			
COc1cccc2c1C(=O)c1c(O)c3c(c(O)c1C2=O)C[C@@](O)(C(C)=O)C[C@@H]3O[C@@H]1O[C@@H](C)[C@@H](O)[C@@H](O)[C@H]1F [FT-DM, 7-O-(2,6-dideoxy-2-fluoro-α-L-talopyranosyl)daunomycinone]		105	105	125	171	217	184	0.15 (≈ 0.274 µM)		0.033 (≈ 0.0604 µM)			
